Laboratory results: US8372867B2, “Insecticidal aryl isoxazoline derivatives” (Bayer CropScience AG, priority 2007, dated 2013)

Legend:
[1] = test system: Musca domestica; assay: whole plant or invertebrate; conditions: read-out: activity (mortality in %)
[2] = test system: Spodoptera litura; assay: Test against larva of Spodoptera litura (leaf dip); assay type: in vivo; conditions: 100 ppm of the active compound; third instar larvae; after 7 days
Protocol: Solvent: Dimethylformamide 3 parts by weight
Emulsifier: Polyoxyethylene alkyl phenyl ether 1 part by weight
(§1) To prepare an appropriate formulation of an active compound, 1 part by weight of the active compound was mixed with the aforementioned amount of the solvent containing the aforementioned amount of the emulsifier, and the mixture was diluted to a prescribed concentration with water.
Leaves of sweet potate were soaked in the test agent diluted to a prescribed concentration with water, air-dried, and placed in a dish of 9 cm in diameter. Into this dish, 10 larvae of Spodoptera litura at the third instar were released and kept in a room at constant temperature of 25° C. After 2 and 4 days, more leaves of sweet potato were added, and the number of dead larvae after 7 days was counted to calculate the death rate. In this test, the test results are presented as an average of the results of two dishes per section.

[3] = test system: Lucilia cuprina larvae; assay: whole plant or invertebrate; conditions: in Equus caballus, read-out: activity (mortality in %)
[4] = test system: Aulacophora femoralis; assay: Test against Aulacophora femoralis (leaf dip); assay type: in vivo; conditions: 100 ppm of the active compound; second instar larvae; after 7 days
Protocol: as §1
Leaves of cucumbers were soaked in a diluted aqueous solution of the prescribed concentration of an active compound prepared in the same manner as in the aforementioned tests, air-dried, and placed a plastic cup containing sterilized black soil. Into this cup, 5 larvae of Aulacophora femoralis at second instar were then released. After 7 days, the number of dead larvae was counted to calculate the death rate.

[5] = test system: organic phosphorus agent- and carbamate agent-resistant Myzus persicae; assay: Test against organic phosphorus agent- and carbamate agent-resistant Myzus persicae (spray); assay type: in vivo; conditions: 500 ppm of the active compound; adults on eggplant; 7 days at 28° C.
Protocol: as §1
About 30 to 50 adults of organic phosphorus agent- and carbamate agent-resistant Myzus persicae per seedling were inoculated to leaves of eggplants at two leaf stage cultured in a pot of 6 cm in diameter. One day after the inoculation, an ample amount of the diluted aqueous solution of the prescribed concentration of an active compound prepared in the same manner as in the aforementioned tests was sprayed with a spray gun. After the spraying, the pot was kept in a greenhouse at 28° C. for 7 days, the death rate was calculated. The test was duplicated.

[6] = test system: Boophilus microplus; assay: whole plant or invertebrate; conditions: Rhipicephalus microplus, 168 h, read-out: activity (mortality in %)

Compound	death rate [2]	death rate [4]	other results
CC(=O)NCc1ccc(C2=NOC(c3cc(Cl)cc(Cl)c3)(C(F)(F)F)C2)cc1 (centres unmarked) [1-1, N-{4-[5-(3,5-dichlorophenyl)-5-(trifluoromethyl)-4,5-dihydroisoxazol-3-yl]benzyl}acetamide]	100%	100%	mortality at 100 ppm [1]: ≥ 80%; mortality at 100 ppm [3]: ≥ 80%
CC(=O)N(Cc1ccc(C2=NOC(c3cc(Cl)cc(Cl)c3)(C(F)(F)F)C2)cc1)C(C)=O (centres unmarked) [1-2]	100%	100%	
O=CN(Cc1ccc(C2=NOC(c3cc(Cl)cc(Cl)c3)(C(F)(F)F)C2)cc1)Cc1ccccn1 (centres unmarked) [1-4]	100%		
CCC(=O)N(Cc1ccc(C2=NOC(c3cc(Cl)cc(Cl)c3)(C(F)(F)F)C2)cc1)Cc1ccccn1 (centres unmarked) [1-6]	100%	100%	
CC(=O)N(Cc1ccccn1)C(C#N)c1ccc(C2=NOC(c3cc(Cl)cc(Cl)c3)(C(F)(F)F)C2)cc1 (centres unmarked) [1-11, N-(cyano{4-[5-(3,5-dichlorophenyl)-5-(trifluoromethyl)-4,5-dihydroisoxazol-3-yl]phenyl}methyl)-N-(pyridin-2-ylmethyl)-acetamide]	100%	100%	
O=CNCc1ccc(C2=NOC(c3cc(Cl)cc(Cl)c3)(C(F)(F)F)C2)cc1Br (centres unmarked) [1-12]	100%	100%	
CC(=O)NCc1ccc(C2=NOC(c3cc(Cl)cc(Cl)c3)(C(F)(F)F)C2)cc1Br (centres unmarked) [1-13]	100%	100%	
CC(=O)N(Cc1ccccn1)Cc1ccc(C2=NOC(c3cc(Cl)cc(Cl)c3)(C(F)(F)F)C2)cc1Br (centres unmarked) [1-15, N-{2-bromo-4-[5-(3,5-dichlorophenyl)-5-(trifluoromethyl)-4,5-dihydroisoxazol-3-yl]benzyl}-N-(pyridin-2-ylmethyl)acetamide]	100%	100%	mortality at 100 ppm [1]: ≥ 80%; mortality at 100 ppm [3]: ≥ 80%
CC(=O)N(Cc1cccnc1)Cc1ccc(C2=NOC(c3cc(Cl)cc(Cl)c3)(C(F)(F)F)C2)cc1Br (centres unmarked) [1-16]	100%	100%	
CC(=O)N(Cc1ccncc1)Cc1ccc(C2=NOC(c3cc(Cl)cc(Cl)c3)(C(F)(F)F)C2)cc1Br (centres unmarked) [1-17]	100%	100%	
CCC(=O)NCc1ccc(C2=NOC(c3cc(Cl)cc(Cl)c3)(C(F)(F)F)C2)cc1Br (centres unmarked) [1-19]	100%	100%	
CCCC(=O)NCc1ccc(C2=NOC(c3cc(Cl)cc(Cl)c3)(C(F)(F)F)C2)cc1Br (centres unmarked) [1-20]	100%	100%	
CC(C)C(=O)NCc1ccc(C2=NOC(c3cc(Cl)cc(Cl)c3)(C(F)(F)F)C2)cc1Br (centres unmarked) [1-21]	100%	100%	
O=C(NCc1ccc(C2=NOC(c3cc(Cl)cc(Cl)c3)(C(F)(F)F)C2)cc1Br)C(F)(F)F (centres unmarked) [1-23]	100%	100%	
O=C(NCc1ccc(C2=NOC(c3cc(Cl)cc(Cl)c3)(C(F)(F)F)C2)cc1Br)c1ccccc1 (centres unmarked) [1-24]	100%	100%	
O=C(NCc1ccc(C2=NOC(c3cc(Cl)cc(Cl)c3)(C(F)(F)F)C2)cc1Br)c1ccccn1 (centres unmarked) [1-25]	100%		
O=C(NCc1ccc(C2=NOC(c3cc(Cl)cc(Cl)c3)(C(F)(F)F)C2)cc1Br)c1cccnc1 (centres unmarked) [1-26]	100%	100%	
O=C(NCc1ccc(C2=NOC(c3cc(Cl)cc(Cl)c3)(C(F)(F)F)C2)cc1Br)c1ccncc1 (centres unmarked) [1-27]	100%	100%	
O=C(NCc1ccc(C2=NOC(c3cc(Cl)cc(Cl)c3)(C(F)(F)F)C2)cc1Br)c1ccccc1F (centres unmarked) [1-28]	100%	100%	
O=C(NCc1ccc(C2=NOC(c3cc(Cl)cc(Cl)c3)(C(F)(F)F)C2)cc1Br)c1ccccc1Cl (centres unmarked) [1-31]	100%	100%	death rate [5]: 100%
O=C(NCc1ccc(C2=NOC(c3cc(Cl)cc(Cl)c3)(C(F)(F)F)C2)cc1Br)c1cccc(Cl)c1 (centres unmarked) [1-32]	100%	100%	
O=C(NCc1ccc(C2=NOC(c3cc(Cl)cc(Cl)c3)(C(F)(F)F)C2)cc1Br)c1ccc(Cl)cc1 (centres unmarked) [1-33]		100%	
O=C(NCc1ccc(C2=NOC(c3cc(Cl)cc(Cl)c3)(C(F)(F)F)C2)cc1Br)c1ccccc1Br (centres unmarked) [1-34]	100%	100%	

Compound	death rate [2]	death rate [4]	other results
Cc1ccccc1C(=O)NCc1ccc(C2=NOC(c3cc(Cl)cc(Cl)c3)(C(F)(F)F)C2)cc1Br (centres unmarked) [1-35]	100%	100%	
C=CC(=O)NCc1ccc(C2=NOC(c3cc(Cl)cc(Cl)c3)(C(F)(F)F)C2)cc1Br (centres unmarked) [1-36]	100%	100%	
CS(=O)(=O)NCc1ccc(C2=NOC(c3cc(Cl)cc(Cl)c3)(C(F)(F)F)C2)cc1Br (centres unmarked) [1-38]	100%	100%	
CNC(=O)NCc1ccc(C2=NOC(c3cc(Cl)cc(Cl)c3)(C(F)(F)F)C2)cc1Br (centres unmarked) [1-40]	100%	100%	
CN(C)C(=O)NCc1ccc(C2=NOC(c3cc(Cl)cc(Cl)c3)(C(F)(F)F)C2)cc1Br (centres unmarked) [1-41]	100%	100%	
CSC(=O)NCc1ccc(C2=NOC(c3cc(Cl)cc(Cl)c3)(C(F)(F)F)C2)cc1Br (centres unmarked) [1-43]	100%		
CC(=O)N(C)Cc1ccc(C2=NOC(c3cc(Cl)cc(Cl)c3)(C(F)(F)F)C2)cc1Br (centres unmarked) [1-46]	100%	100%	
CC(=O)NCc1ccc(C2=NOC(c3cc(Cl)cc(Cl)c3)(C(F)(F)F)C2)cc1F (centres unmarked) [1-57]	100%	100%	
CC(=O)NCc1ccc(C2=NOC(c3cc(Cl)cc(Cl)c3)(C(F)(F)F)C2)cc1Cl (centres unmarked) [1-58]	100%	100%	
CC(=O)NCc1ccc(C2=NOC(c3cc(Cl)cc(Cl)c3)(C(F)(F)F)C2)cc1I (centres unmarked) [1-59]	100%	100%	
CC(=O)NCc1ccc(C2=NOC(c3cc(Cl)cc(Cl)c3)(C(F)(F)F)C2)cc1[N+](=O)[O-] (centres unmarked) [1-60, N-{4-[5-(3,5-dichlorophenyl)-5-(trifluoromethyl)-4,5-dihydroisoxazol-3-yl]-2-nitrobenzyl}acetamide]	100%	100%	mortality at 100 ppm [1]: ≥ 80%; mortality at 100 ppm [6]: ≥ 80%; mortality at 100 ppm [3]: ≥ 80%
CC(=O)NCc1ccc(C2=NOC(c3cc(Cl)cc(Cl)c3)(C(F)(F)F)C2)cc1C#N (centres unmarked) [1-62]	100%	100%	
CC(=O)NCc1ccc(C2=NOC(c3cc(Cl)cc(Cl)c3)(C(F)(F)F)C2)cc1C (centres unmarked) [1-63, N-{4-[5-(3,5-dichlorophenyl)-5-(trifluoromethyl)-4,5-dihydroisoxazol-3-yl]-2-methylbenzyl}acetamide]	100%	100%	mortality at 100 ppm [1]: ≥ 80%; mortality at 100 ppm [6]: ≥ 80%; mortality at 100 ppm [3]: ≥ 80%
CC(=O)N(Cc1ccc(C2=NOC(c3cc(Cl)cc(Cl)c3)(C(F)(F)F)C2)cc1Br)N=C(C)C (centres unmarked) [1-90]	100%		
CC(=O)NCc1ccc(C2=NOC(C)(c3cc(Cl)cc(Cl)c3)C2)cc1Br (centres unmarked) [1-93]		100%	
CC(=O)NCc1ccc(C2=NOC(c3ccc(Cl)c(Cl)c3)(C(F)(F)F)C2)cc1Br (centres unmarked) [1-94]	100%	100%	
CC(=O)NCc1ccc(C2=NOC(C)(c3cccc(F)c3)C2)cc1Br (centres unmarked) [1-97]	100%	100%	
CC(=O)NCc1ccc(C2=NOC(c3cccc(Cl)c3)(C(F)(F)F)C2)cc1Br (centres unmarked) [1-98]	100%	100%	
CC(=O)NCc1ccc(C2=NOC(c3cccc(C(F)(F)F)c3)(C(F)(F)F)C2)cc1Br (centres unmarked) [1-99]	100%	100%	
CC(=O)NCc1ccc(C2=NOC(c3ccc(C(F)(F)F)cc3)(C(F)(F)F)C2)cc1Br (centres unmarked) [1-100]	100%	100%	
CC(=O)NCc1ccc(C2=NOC(c3cc(C(F)(F)F)cc(C(F)(F)F)c3)(C(F)(F)F)C2)cc1Br (centres unmarked) [1-101]	100%	100%	
CC(=O)NCc1ccc(C2=NOC(c3cccc([N+](=O)[O-])c3)(C(F)(F)F)C2)cc1Br (centres unmarked) [1-102]		100%	
CC(=O)NCc1ccc(C2=NOC(c3cccc(C#N)c3)(C(F)(F)F)C2)cc1Br (centres unmarked) [1-106]		100%	
